Data on 13 molecules can be found in patent publication US8399520B2, “Selective estrogen receptor modulator” (Eisai R&D Management Co., Ltd., priority 2002, dated 2013).

In series [1] the target is T1, estrogen receptor derived from bovine uterus (Bos taurus, UniProt P49884).
T1 construct: estrogen receptor derived from bovine uterus was diluted with the assay buffer solution so that 10 to 20 μg total protein was present; from tissue; host or cells: bovine uterus
T1 sequence (P49884 1-596): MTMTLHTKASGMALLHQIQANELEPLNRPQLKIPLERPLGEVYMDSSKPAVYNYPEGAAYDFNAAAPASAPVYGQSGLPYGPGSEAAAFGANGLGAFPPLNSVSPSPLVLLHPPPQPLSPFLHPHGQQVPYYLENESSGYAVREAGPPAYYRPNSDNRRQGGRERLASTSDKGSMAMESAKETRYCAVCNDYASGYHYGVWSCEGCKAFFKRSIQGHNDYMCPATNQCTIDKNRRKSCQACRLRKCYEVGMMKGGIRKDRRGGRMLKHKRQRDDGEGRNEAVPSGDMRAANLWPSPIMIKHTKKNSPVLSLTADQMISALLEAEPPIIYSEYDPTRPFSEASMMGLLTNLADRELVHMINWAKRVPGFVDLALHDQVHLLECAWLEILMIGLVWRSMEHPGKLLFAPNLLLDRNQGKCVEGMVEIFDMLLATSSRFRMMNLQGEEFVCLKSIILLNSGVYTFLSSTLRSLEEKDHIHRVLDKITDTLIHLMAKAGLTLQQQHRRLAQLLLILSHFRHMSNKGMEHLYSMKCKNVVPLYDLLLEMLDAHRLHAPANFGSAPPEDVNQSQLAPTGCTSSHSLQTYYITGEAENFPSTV
The series is described as follows: In vitro estrogen receptor binding assay. Conditions: read-out: Estrogen receptor binding affinity: Ki. The procedure:
The binding affinity of the compound according to the present invention to estrogen receptor was measured using an in vitro estrogen receptor binding assay. The binding affinity measures the ability of the compound according to the present invention to remove [^3H]-estradiol from estrogen receptor derived from bovine uterus. The following materials were used in this assay: (1) the assay buffer solution was 20 mM Tris/HCl (pH 7.5) containing 1 mM dithiothreitol (DTT), 1 mM EDTA and 10% glycerol; (2) radioactive ligand was [^3H]-estradiol purchased from Amersham Life Science; (3) the cold ligand was diethylstilbestrol purchased from sigma (Sigma); and (4) the estrogen receptor was derived from bovine uterus. The compound to be tested was prepared as a 10% DMSO solution. [^3H]-estradiol was dissolved in the assay buffer solution so as to obtain a final concentration of 1 nM. […] Each plate contains total binding, non-specific binding and the binding which were not inhibited by various concentrations of the compound. The plate was incubated for 1 hour at room temperature. […] These mixtures were centrifuged, and the supernatant thereof was evaluated for its radioactivity using a liquid scintillation counter. Specific binding was calculated by subtracting non-specific binding dpm (counts remaining in the supernatant obtained by centrifugal separation of a reaction mixture containing estrogen receptor derived from bovine uterus, radioactive ligand and excess cold ligand) from the total binding dpm (counts remaining in the supernatant obtained by centrifugal separation of a reaction mixture containing estrogen receptor derived from bovine uterus and radioactive ligand only). The effectiveness of the compound was evaluated by Ki. […] C is the concentration of [^3H]-estradiol in the reaction mixture, and Kd is the [^3H]-estradiol dissociation constant. The Kd was determined by Scatchard analysis. That is to say, various concentrations of [^3H]-estradiol were used to measure the concentration of specifically bound [^3H]-estradiol, which served as the horizontal axis, the value which was obtained by dividing the concentration of specifically bound [^3H]-estradiol by the concentration [^3H]-estradiol not bound to the receptor served as the vertical axis to produce a plot, and the negative value of the inverse of the slope of the resulting straight line was used as Kd.

Series [2] relates to MCF-7 breast cancer cells. Nature of the series: MCF-7 growth analysis (estrogen agonist and antagonist activity, MTT assay). The class given is cell-based. The settings on record: Homo sapiens; for activity at 0.1 µM: MCF7, MCF-7, 72 hours, growth rate of diluent control = 100, of 17β-estradiol (1 nM) = 200, read-out: Agonist activity: growth rate (100 nM test compound); for IC50: MCF7, MCF-7 growth with 17β-estradiol (10 pM) present simultaneously, 72 hours. Here is the method: Test Example 2 determines the estrogen agonist and antagonist activities of the compound according to the present invention in reproduction system cells. […] The present test was carried out according to the following procedures. MCF-7 breast cancer cells were cultured in the preservation medium until the compound evaluation. The preservation medium is the MEM (minimum essential medium, phenol red-free, Gibco, ##51200-038) supplemented with 10% (volume/volume) fetal bovine serum (FBS), 2 mM L-glutamine, 1 mM sodium pyruvate, non-essential amino acids (0.1 mM, Gibco, #15240-062), and antibiotic-antimycotic solution ( 1/50 of culture medium volume, Gibco). Five days prior to analysis, the preservation medium was exchanged with analytical medium to which 10% charcoal-stripped fetal bovine serum (charcoal-FBS) was added instead of 10% FBS, so as to deprive the MCF-7 cells of endogenous steroids. Twenty-four hours after exchange to the analytical medium, the MCF-7 cells were removed from the preservation flask using cell isolation medium (trypsin-EDTA solution, Gibco). The cells were washed with analytical medium once, and cell suspension at 50,000 cell/ml was prepared using the analytical medium. The prepared cell suspension was added to a 96 well flat-bottomed microculture at […] (5,000 cells) per well, the cells were cultured in a 5% CO2 incubator for 24 hours at 37° C., to equilibrate the cells after cell transfer. […] The cells were further cultured in the 5% CO2 incubator for 72 hours at 37° C. After culturing, the cell growth was examined by the MTT assay. MTT assay was carried out as the following protocols. MTT solution at 8 mg/ml (MTT dissolved in phosphate saline water buffer) was added to the microculture at 10 μl/well, and the cells were cultured in the 5% CO2 incubator for 30 minutes at 37° C. Thereafter, resulting from the reduction of MTT by the cells, formazan crystals were dissolved by adding a dissolution buffer (400 g/l of an aqueous solution of SDS (50%) and dimethylformamide (50%)) to the microculture at 100 μl/well, and incubated the microculture for more than 4 hours in the dark. For each well of the microculture, the optical density at 590 nm due to the dissolved formazan crystals was measured.

Series [3] relates to ovariectomized rats. The series is described as follows: Bone resorption in ovariectomized rats: deoxypyridinoline in urine. It is filed as in vivo, rat. The settings on record: OVX rats, 0.3 mg/kg orally once a day Monday to Friday, urine. The text has this: (§1) Ten weeks old Female Fischer rats (F344/N, Japan SLC, Shizuoka, Japan) were used. Rats were grouped to eliminate the effect of body weight between each group and housed with free access to food and water. Animals were anesthetized with Nembutal (Abbott Laboratories, Chicago, Ill.) and the ovaries were removed. In sham-operated group, ovaries were only touched with tweezers. Administration of compounds was started one day after the operation.
(§2) Estradiol (Sigma-Aldrich, St. Louis, Mo.) was dissolved in DMSO to 150 mg/mL then diluted with sesame oil to 0.15 mg/mL. The compounds in Examples 736 and 814, and Raloxifene were suspended in sesame oil to 5, 5 and 1.5 mg/mL, respectively. Samples were divided into aliquots for daily administration and preserved at −18° C. until use.
(§3) The samples were orally administered at 2 mL/kg. Administration was carried out once a day from Monday to Friday for 8 weeks.
Urine was gathered overnight (17 hours) using the metabolic cage under fasting. The amount of urinary deoxypyridinoline was measured with ELISA kit, Osteorincs-DPD (Sumitomo Seiyaku Biomedical Co., Ltd., Osaka, Japan) and evaluated as total amount produced in 17 hours or as the amount per 1 mg of creatinine.

The subject of series [4] is ovariectomized rats. The series is described as follows: Ovariectomized rats: bone density of femur and fifth lumbar vertebrae. The class given is in vivo, rat. Conditions: OVX rats, 0.3 mg/kg orally, 8 weeks.
From the text: as §1, §2, §3
After animals were sacrificed by decapitation, left femur and the fifth lumbar vertebrae were removed. The bone density was measured by using QDR-1000/W (Ho logic Inc., Bedford, Mass.).

Series [5] concerns ovariectomized rats. Nature of the series: Ovariectomized rats: uterus wet weight. The settings on record: OVX rats, 0.3 mg/kg orally, 8 weeks. It is filed as in vivo, rat.
From the text: as §1, §2, §3
After animals were sacrificed by decapitation, uterus was removed and adipose tissue and vagina was separated from uterus prior to uterus weight measurement.

Broadly, the Ki is the equilibrium dissociation constant of an inhibitor or competing ligand from its target. The term IC50 denotes the concentration that gives 50% inhibition. A high value points to weaker potency in that assay. As for `CCN(Cc1ccc(OCCN2CCCCCC2)cc1)c1cc(O)ccc1[C@@H]1CCc2cc(O)ccc2C1` [190 (R), (R)-6-{2-{[4-(2-azepan-1-ylethoxy)benzyl]ethylamino}-4-hydroxyphenyl}-5,6,7,8-tetrahydronaphthalen-2-ol], the Ki in series [1] is 1 nM. In series [2], the activity at 0.1 µM worked out at 124% and the IC50 was 7.95 nM.
For the molecule `CC/C(=C(\c1ccccc1)c1ccc(OCCN(C)C)cc1)c1ccccc1` [Comparative Example, Tamoxifen, reference compound], in series [2], the activity at 0.1 µM worked out at 133%.
On to `C[C@]12CC[C@@H]3c4ccc(O)cc4CC[C@H]3[C@@H]1CC[C@@H]2O` [Estradiol, reference compound], for which the “Deoxypyridinoline, 5 weeks” value in series [3] (5 weeks) is 12.06 ± 1.60 nM/mg/dl. For the same molecule, the “Deoxypyridinoline, 8 weeks” value in series [3] (8 weeks) is 11.61 ± 2.10 nM/mg/dl. In addition, in series [4], the “Bone Mineral Density, Distal femur” value is given as 0.250 ± 0.001 g/cm^2; the “Bone Mineral Density, Lumber 5” value was found to be 0.150 ± 0.005 g/cm^2; the “Bone Mineral Density, Whole femur” value is 0.237 ± 0.001 g/cm^2. Further, the “Uterus (wet weight)” value in series [5] was found to be 0.213 ± 0.013 g.
On to `CCN(Cc1ccc(OCCN2CCCCCC2)nc1)c1cc(OC)ccc1[C@@H]1CCc2cc(O)ccc2C1` [Example 228, (R)-6-{2-{[6-(2-Azepan-1-ylethoxy)pyridin-3-ylmethyl]ethylamino}-4-methoxyphenyl}-5,6,7,8-tetrahydronaphthalen-2-ol], for which the Ki in series [1] turned out to be 2.3 nM. In addition, in series [2], the activity at 0.1 µM worked out at 101% and the IC50 came to 2.62 nM.
The matching figures for `CCN(Cc1ccc(CCN2CCCCCC2)cn1)c1cc(OC)c(OC)cc1C1CCc2cc(O)ccc2C1` (stereo not drawn) [Example 255, 6-{2-{[5-(2-Azepan-1-ylethyl)pyridin-2-ylmethyl]ethylamino}-4,5-dimethoxyphenyl}-5,6,7,8-tetrahydronaphthalen-2-ol]: 1.4 nM, 106% and 1.4 nM.
For `CCN(Cc1ccc(CCN2CCCCCC2)s1)c1cc(OC)c(OC)cc1[C@@H]1CCc2cc(O)ccc2C1` [Example 259, (R)-6-{2-{[5-(2-Azepan-1-ylethyl)thiophen-2-ylmethyl]ethylamino}-4,5-dimethoxyphenyl}-5,6,7,8-tetrahydronaphthalen-2-ol] the same measures were 2.8 nM, 103% and 4.12 nM.
Turning to `CCN(Cc1ccc(OC2CC3CCC(C2)N3C)c(F)c1)c1cc(O)ccc1C1CCc2cc(O)ccc2C1` (stereo not drawn) [Example 367, 6-{2-{Ethyl[3-fluoro-4-(8-methyl-8-azabicyclo[3.2.1]oct-3-yloxy)benzyl]amino}-4-hydroxyphenyl}-5,6,7,8-tetrahydronaphthalen-2-ol], the Ki in series [1] amounted to 1.8 nM.
Same read-out and setting: under `CCN1CCN(CCOc2ccc(CN(CC)c3cc(O)ccc3C3CCc4cc(O)ccc4C3)cc2)CC1` (stereo not drawn) [Example 373, 6-{2-{Ethyl{4-[2-(4-ethylpiperazin-1-yl)ethoxy]benzyl}amino}-4-hydroxyphenyl}-5,6,7,8-tetrahydronaphthalen-2-ol] stands 5 nM; under `CCNCCOc1ccc(CN(CC)c2cc(O)ccc2C2CCc3cc(O)ccc3C2)cc1` (stereo not drawn) [Example 379, 6-{2-{Ethyl[4-(2-ethylaminoethoxy)benzyl]amino}-4-hydroxyphenyl}-5,6,7,8-tetrahydronaphthalen-2-ol], 1.1 nM.
In the case of `CCOCCN(C)CCOc1ccc(CN(CC)c2cc(OC)ccc2[C@@H]2CCc3cc(O)ccc3C2)cc1` [Example 618, (R)-6-{2-{{4-{2-[(2-Ethoxyethyl)methylamino]ethoxy}benzyl}ethylamino}-4-methoxyphenyl}-5,6,7,8-tetrahydronaphthalen-2-ol], the Ki in series [1] was 2.9 nM. Also, in series [2], the activity at 0.1 µM turned out to be 96% and the IC50 was 2.9 nM.
`CCN(Cc1ccc(CCN(C)C)cc1)c1cc(OC)c(OC)cc1[C@@H]1CCc2cc(O)ccc2C1` [Example 741, (R)-6-{2-{[4-(2-Dimethylaminoethyl)benzyl]ethylamino}-4,5-dimethoxyphenyl}-5,6,7,8-tetrahydronaphthalen-2-ol]: in series [1], the Ki was found to be 0.2 nM. In addition, in series [2], the activity at 0.1 µM turned out to be 98% and the IC50 came to 2.06 nM.
For `CC(C)(Cc1ccc(O)cc1Oc1ccc(OCCN2CCCCC2)cc1)c1ccc(O)cc1` [Example 776, 4-[2-(4-Hydroxyphenyl)-2-methylpropyl]-3-[4-(2-piperidin-1-ylethoxy)phenoxy]phenol], the Ki in series [1] came out at 6.3 nM.
Still for that read-out and setting: under `CCN(Cc1ccc(OCCN2CCCCC2)cc1)c1cc(O)ccc1CC1CCc2cc(O)ccc2C1` (stereo not drawn) [Example 791, 6-{2-{Ethyl[4-(2-piperidin-1-ylethoxy)benzyl]amino}-4-hydroxybenzyl}-5,6,7,8-tetrahydronaphthalen-2-ol] stands 9.8 nM.
